This is an account of results in ChEMBL document CHEMBL1201862, “PubChem BioAssay data set” (2004).

For orientation: IC50 means the concentration at which inhibition is half-maximal. What is called AC50 is the concentration giving half of the maximal activity seen. The EC50 is the concentration at which the effect is half-maximal.

Test [1] concerns the target T1, E3 ubiquitin-protein ligase XIAP (Homo sapiens, UniProt P98170). The test is described as follows: Counter Screen using XIAP-Bir3 for Chemical Antagonists of Bir1/2 domains of IAP-family anti-apoptotic proteins. [Related pubchem assays (depositor defined):AID1018, AID1449, AID1514, AID1638, AID1749, AID1750, AID488957, AID488963]. A general note: A counterscreen serves to expose hits that act by an unwanted route or on another target.

The target in test [2] is T1, E3 ubiquitin-protein ligase XIAP. Put plainly: XIAP antagonists, biochemical, IAP family, fluorescence polarization (AID 1018). In kind it is functional. Background: In fluorescence polarisation assays a small probe gives low polarisation when free and higher when bound to something large.
Test [3] concerns the target T2, Runt-related transcription factor 1/Core-binding factor subunit beta (Homo sapiens, UniProt Q01196+Q13951). Put plainly: inhibitors of RUNX1 Runt–CBFb-SMMHC binding, primary screen, biochemical, FRET, Cerulean-Runt, Venus-CBFb-SMMHC, uHTS (AID 1434).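 Note: partner is the CBFb-SMMHC leukemia fusion protein rather than wild-type CBFb.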 In kind it is protein assay.
Test [4] has as its target T2, Runt-related transcription factor 1/Core-binding factor subunit beta. The test is described as follows: inhibitors of RUNX1 Runt–CBFb-SMMHC binding, biochemical, TR-FRET (AID 1438). In kind it is protein assay. Background: Time-resolved FRET reads energy transfer from a long-lived donor to a nearby acceptor.
A short description of test [5]: mammalian cell cytotoxicity, dose response, cytotoxicity control, plate reader, cherry-pick samples (AID 504397). The class given is functional, cell-based.
Another test deals with T3, CAAX prenyl protease 2 (Saccharomyces cerevisiae S288c, UniProt Q03530).
T3 sequence (Q03530 whole entry): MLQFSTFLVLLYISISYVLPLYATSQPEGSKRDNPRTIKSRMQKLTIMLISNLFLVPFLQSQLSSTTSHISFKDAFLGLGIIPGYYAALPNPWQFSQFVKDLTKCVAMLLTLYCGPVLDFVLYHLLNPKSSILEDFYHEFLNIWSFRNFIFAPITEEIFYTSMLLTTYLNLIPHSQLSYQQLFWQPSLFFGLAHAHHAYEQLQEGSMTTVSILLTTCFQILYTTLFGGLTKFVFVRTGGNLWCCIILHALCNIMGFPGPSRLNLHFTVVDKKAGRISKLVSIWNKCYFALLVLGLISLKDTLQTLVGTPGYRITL
In kind it is biochemical.

Test [6] has as its target T4, Tyrosine-protein phosphatase non-receptor type 7 (Homo sapiens, UniProt P35236).
T4 sequence (P35236 whole entry): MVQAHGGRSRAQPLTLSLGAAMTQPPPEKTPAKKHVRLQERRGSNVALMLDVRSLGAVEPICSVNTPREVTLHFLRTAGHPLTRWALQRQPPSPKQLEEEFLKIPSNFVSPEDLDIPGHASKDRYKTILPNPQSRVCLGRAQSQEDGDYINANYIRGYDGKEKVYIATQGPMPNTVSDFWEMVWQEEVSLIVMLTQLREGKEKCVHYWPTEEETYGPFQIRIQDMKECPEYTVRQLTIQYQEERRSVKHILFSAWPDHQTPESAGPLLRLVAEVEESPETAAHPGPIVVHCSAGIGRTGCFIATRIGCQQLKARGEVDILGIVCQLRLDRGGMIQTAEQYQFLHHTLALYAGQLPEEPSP
Put plainly: SAR analysis of chemical inhibitors of HePTP using a Fluorescent assay - Set 2. [Related pubchem assays (depositor defined):AID1059, AID1077, AID1661, AID2085, AID521]. In kind it is functional.

In test [7] the target is Dual specificity protein phosphatase 3 (Homo sapiens, UniProt P51452). Put plainly: SAR VHR1 Fluorescent Assay for In Vitro dose response studies Set 2. [Related pubchem assays (depositor defined):AID1654, AID1661, AID1878]. The class given is functional.
Sequence of Dual specificity protein phosphatase 3 (P51452 whole entry): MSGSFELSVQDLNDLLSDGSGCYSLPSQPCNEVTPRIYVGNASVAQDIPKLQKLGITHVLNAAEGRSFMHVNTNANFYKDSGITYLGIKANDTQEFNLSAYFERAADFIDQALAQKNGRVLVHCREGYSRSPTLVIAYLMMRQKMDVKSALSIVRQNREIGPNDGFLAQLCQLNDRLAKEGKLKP
For test [8], the system named is BJ. Put plainly: cells. Conditions: Homo sapiens. The class given is functional, cell-based.
A short description of test [9]: Luminescence Cell-Based Dose Retest to Confirm Activators of 5'UTR Stem-Loop Driven Alpha-Synuclein mRNA Translation in H4 Neuroglioblastoma Cells. [Related pubchem assays (depositor defined):AID1813, AID1829]. In kind it is functional.
For a further test, the target named is Transthyretin (Homo sapiens, UniProt P02766). The test is described as follows: Luminescence-based cell-based high throughput dose response assay to identify activators of Transthyretin (TTR) transcription. In kind it is functional.
Test [10] in a line: Luminescence Cell-Based Dose Confirmation HTS to Identify Inhibitors of 5'UTR Stem-Loop Driven Alpha-Synuclein mRNA Translation in H4 Neuroglioblastoma Cells. [Related pubchem assays: 1827 (Project Summary), 1813 (Primary HTS)]. In kind it is functional.
Test [11] is described as follows: cytotoxicity in HEK-293T cells, dose response, cytotoxicity control for TCR NF-kB inhibitor project, luminescence, T-cell screen hits (AID 489026).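 Note: cells exposed to compound about 14 hours before the viability readout.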 The class given is functional, cell-based.
Test [12] can be described thus: Luminescence Cell-Based Dose Response HTS to Identify Inhibitors of 5'UTR Stem-Loop Driven Prion Protein mRNA Translation in H4 Neuroglioblastoma Cells. [Related pubchem assays: 1827 (Project Summary), 1813 (Primary HTS)]. In kind it is functional.
The test system of test [13] is BJ. Put plainly: cytotoxicity toward BJ-TERT fibroblasts, dose response, cell-based, RAS-independent, luminescence (AID 1933). Conditions: Homo sapiens. The class given is functional.
A short description of test [14]: cytotoxicity toward DRD oncogenic fibroblasts, dose response, cell-based, non-viral oncogenic, luminescence (AID 1934). Conditions: Homo sapiens. In kind it is functional.
Test [15] relates to BJ. Put plainly: cytotoxicity toward BJ-TERT-LT-ST fibroblasts, dose response, cell-based, RAS-independent, luminescence (AID 1935).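 Note: BJ fibroblasts immortalized with TERT plus LT and ST oncogenes.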 The class given is functional. Conditions: Homo sapiens.
Test [16] can be described thus: Luminescence Cell-Based Dose Response HTS to Identify Activators of 5'UTR Stem-Loop Driven Prion Protein mRNA Translation in H4-C Neuroglioblastoma Cells. [Related pubchem assays: 1829 (Project Summary), 1814 (Primary HTS)]. In kind it is functional.
Test [17] is described as follows: inhibitors of firefly luciferase expression or activity, dose response, H4 neuroglioma cells, luminescence (AID 1990). In kind it is functional, cell-based.
A short description of test [18]: Luminescence Cell-Based Dose Response HTS to Identify Activators of Luciferase Translation or Activity in H4-C Neuroglioblastoma Cells. [Related pubchem assays: 1829 (Project Summary), 1814 (Primary HTS)]. The class given is functional.
Test [19] in a line: inhibitors of SNCA 5'UTR-driven reporter translation, confirmation, H4 neuroglioma cells, luminescence (AID 1988). The class given is functional, cell-based.
Test [20] is described as follows: Luminescence Cell-Based Dose Response HTS to Identify Inhibitors of Luciferase Translation or Activity in H4-C Neuroglioblastoma Cells. [Related pubchem assays: 1813 (Primary HTS), 1827 (Project Summary)]. In kind it is functional.
Test [21] can be described thus: Luminescence Cell-Based Dose HTS Response to Identify Inhibitors of 5'UTR Stem-Loop Driven Prion Protein mRNA Translation in H4-C Neuroglioblastoma Cells. [Related pubchem assays (depositor defined):AID1814, AID1827]. The class given is functional.

Molecules are shown by their SMILES. Active and inactive are the calls of the source. A value given as a limit tells only on which side of the number the result lay.

T1 sequence (P98170 whole entry): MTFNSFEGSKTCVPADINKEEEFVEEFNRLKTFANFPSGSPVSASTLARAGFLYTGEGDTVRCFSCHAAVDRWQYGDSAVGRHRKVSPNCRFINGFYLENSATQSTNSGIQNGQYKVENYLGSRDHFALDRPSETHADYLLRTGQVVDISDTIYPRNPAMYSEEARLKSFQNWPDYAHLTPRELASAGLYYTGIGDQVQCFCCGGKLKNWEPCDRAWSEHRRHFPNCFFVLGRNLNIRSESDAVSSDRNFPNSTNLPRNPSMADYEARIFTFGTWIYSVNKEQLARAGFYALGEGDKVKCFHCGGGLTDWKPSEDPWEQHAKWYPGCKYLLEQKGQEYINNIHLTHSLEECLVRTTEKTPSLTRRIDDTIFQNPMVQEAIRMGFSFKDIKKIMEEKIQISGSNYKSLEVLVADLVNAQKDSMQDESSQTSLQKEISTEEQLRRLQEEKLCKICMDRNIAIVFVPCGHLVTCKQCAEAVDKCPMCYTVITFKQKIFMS
T2 sequence (Q01196 whole entry, the tested form may be a part): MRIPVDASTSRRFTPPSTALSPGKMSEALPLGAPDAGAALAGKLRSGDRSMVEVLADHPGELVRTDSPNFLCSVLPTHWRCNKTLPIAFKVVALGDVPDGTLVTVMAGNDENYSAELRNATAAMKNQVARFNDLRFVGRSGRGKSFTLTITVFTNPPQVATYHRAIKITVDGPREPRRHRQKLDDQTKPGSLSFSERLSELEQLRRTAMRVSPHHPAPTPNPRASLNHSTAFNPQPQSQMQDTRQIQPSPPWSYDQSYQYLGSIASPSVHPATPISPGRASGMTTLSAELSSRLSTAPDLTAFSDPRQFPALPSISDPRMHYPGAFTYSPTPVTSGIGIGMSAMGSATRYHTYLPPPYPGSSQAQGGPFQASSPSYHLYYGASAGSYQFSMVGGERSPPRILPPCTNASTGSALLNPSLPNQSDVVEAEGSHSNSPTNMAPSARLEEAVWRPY
T2 sequence (Q13951 whole entry, the tested form may be a part): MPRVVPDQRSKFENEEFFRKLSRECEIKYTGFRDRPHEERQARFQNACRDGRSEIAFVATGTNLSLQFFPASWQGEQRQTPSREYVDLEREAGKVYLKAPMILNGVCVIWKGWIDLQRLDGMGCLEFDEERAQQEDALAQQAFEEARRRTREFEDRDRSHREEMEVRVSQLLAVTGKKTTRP

Regarding `CC(C)CNS(=O)(=O)c1ccc(CCC(=O)N2CCN(Cc3ccccc3)CC2)cc1`, the IC50 in [1] is > 100 µM (inactive); in test [2], > 100 µM (not active).
In the case of `N=c1c(C(=O)NCc2ccc(F)cc2)cc2c(=O)n3ccccc3nc2n1Cc1ccco1`, the IC50 is 3.78 µM (active) in [3] and 43.5 µM (active) in test [4].
As for `O=C(Nc1ccc(N2CCOCC2)c(Cl)c1)c1cc2ccccc2o1`, the AC50 is 260 µM (active) in [5] and 3.46 µM (active) on CAAX prenyl protease 2.
Take `COc1cccc(CN2CCN(C(=S)Nc3ccc(S(N)(=O)=O)cc3)CC2)c1`: the IC50 in [6] and in [7] was > 100 µM (inactive) in each case.
`CCOC(=O)Nc1nc(-c2ccccc2)c(C(=O)c2ccc(Cl)cc2)s1`: the EC50 is 15.6 µM (active) with BJ [8]; 1.76 µM (inconclusive) in test [9]; > 167 µM (inactive) at Transthyretin; 1.76 µM (active) in test [10]; 3.25 µM (active) in [12]; 1.26 µM (inconclusive) in the test on BJ [13]. Further, the EC50 was 1.28 µM (active) in test [14]; 1.45 µM (inconclusive) in the test with BJ [15]; 1.95 µM (inconclusive) in test [16]; 5.3 µM (active) in [17]; 2.32 µM (inconclusive) in test [18]; 0.108 µM (active) in test [19]. The EC50 in [20] is 2.32 µM (active); in test [21], 1.95 µM (active). Also, in test [11], the IC50 is > 80 µM (inactive).
